Values of other authors in patent publication US7629342B2, “Azabicyclic heterocycles as cannabinoid receptor modulators” (Bristol-Myers Squibb Company, priority 2005, dated 2009).

Tests used:
[1] = 16 week trial period, Phase IIb
[2] = highest dose; relative to 14.8% for placebo
[3] = chronic administration for two weeks

Compound | body weight in human subjects [1] | patients stayed abstinent from cigarette smoke [2] [%] | body weight [3]
Cc1c(C(=O)NN2CCCCC2)nn(-c2ccc(Cl)cc2Cl)c1-c1ccc(Cl)cc1 [SR-141716] | dose-dependently reduced body weight | 30.2 | 
Cc1c(C(=O)NN2CCCCC2)nn(-c2ccc(Cl)cc2Cl)c1-c1ccc(I)cc1 [AM-251] |  |  | substantial body weight reduction
